Data on seven molecules can be found in patent US20060148796A1, “6-Substituted imidazopyrazines” (priority 2003, published 2006).

The test system of the first series is pentagastrin-stimulated acid secretion of the perfused rat stomach. Put plainly: Secretion-inhibiting action on the perfused rat stomach (pentagastrin-stimulated acid secretion, intraduodenal administration in vivo). The following applies: dose 1 μmol/kg i.d., perfused stomach of anesthetized CD rat, female. The source says:
Testing of the Secretion-Inhibiting Action on the Perfused Rat Stomach
In Table A which follows, the influence of the compounds according to the invention on the pentagastrin-stimulated add secretion of the perfused rat stomach after intraduodenal administration in vivo is shown.
The abdomen of anesthetized rats (CD rat, female, 200-250 g; 1.5 g/kg Im. urethane) was opened after tracheotomy by a median upper abdominal incision and a PVC catheter was fixed transorally in the esophagus and another via the pylorus such that the ends of the tubes just projected into the gastric lumen. The catheter leading from the pylorus led outward into the right abdominal wall through a side opening.
After thorough rinsing (about 50-100 ml), warm (37° C.) physiological NaCl solution was continuously passed through the stomach (0.5 ml/min, pH 6.8-6.9; Braun-Unita I). The pH (pH meter 632, glass electrode EA 147; φ=5 mm, Metrohm) and, by titration with a freshly prepared 0.01N NaOH solution to pH 7 (Dosimat 665 Metrohm), the secreted HCl were determined in the effluent in each case collected at an interval of 15 minutes.
The gastric secretion was stimulated by continuous infusion of […] (=1.65 ml/h) of i.v. pentagastrin (left femoral vein) about 30 min after the end of the operation (.e. after determination of 2 preliminary fractions). […]
Take `CCc1cccc(C)c1CNc1nc(C(=O)N(C)C)cn2c(C)c(C)nc12` [Example 5, 6-(Dimethylaminocarbonyl)-8-(2-ethyl-6-methyl-benzylamino)-2,3-dimethyl-imidazo[1,2a]-pyrazine]: the “Inhibition of acid secretion (%)” value turned out to be 49%. Same read-out and setting: the same measure for `CCc1cccc(C)c1CNc1nc(COC)cn2c(C)c(C)nc12.Cl` [Example 13, 8-(2-Ethyl-6-methyl-benzylamino)-6-(methoxymethyl)-2,3-dimethyl-imidazo[1,2-a]pyrazine hydrochloride]: 46%.

Test system in another series: not given
Assay: not given
Conditions: not given
Consider `CCc1cccc(C)c1CNc1nc(Br)cn2c(C)c(C)nc12.O=C(O)C(=O)O` [Example 3, 6-Bromo-8(2-ethyl-6-methyl-benzylamino)-2,3-dimethyl-imidazo[1,2-a]pyrazine oxalate], for which the melting point (commonly the temperature, or range, at which the solid turns liquid) is 163 °C. `CCOC(=O)c1cn2c(C)c(C)nc2c(NCc2c(C)cccc2CC)n1` [Example 4, Ethyl 8-(2-ethyl-6-methyl-benzylamino)-2,3-dimethyl-imidazo[1,2-a]pyrazine-6-carboxylate] came in with a melting point of 144 °C. The molecule `CCc1cccc(C)c1CNc1nc(C(=O)O)cn2c(C)c(C)nc12` [Example 6, 8-(2-Ethyl-6-methyl-benzylamino)-2,3-dimethyl-imidazo[1,2-a]pyrazine-6-carboxylic acid] gave a melting point of 230 °C. Molecule `CCc1cccc(C)c1CNc1nc(C(=O)N2CCCC2)cn2c(C)c(C)nc12` [Example 7, 8-(2-Ethyl-6-methyl-benzylamino)-6-(pyrrolidinocarbonyl)-2,3-dimethyl-imidazo[1,2-a]pyrazine] displayed a melting point of 197 °C. Still for that read-out and setting: as for `CCc1cccc(C)c1CNc1nc(CO)cn2c(C)c(C)nc12` [Example 12, 8-(2-Ethyl-6-methyl-benzylamino)-6-(hydroxymethyl)-2,3-dimethyl-imidazo[1,2-a]pyrazine], the figure is 166 °C.

In turn, `CCc1cccc(C)c1CNc1nc(COC)cn2c(C)c(C)nc12.Cl` [Example 13, 8-(2-Ethyl-6-methyl-benzylamino)-6-(methoxymethyl)-2,3-dimethyl-imidazo[1,2-a]pyrazine hydrochloride] showed a melting point of 177 °C.
